Measurements: ChEMBL document CHEMBL1201862, “PubChem BioAssay data set” (2004)
Values joined by “and” are separate entries in the source; they are usually repeats but may differ in a detail not shown here. Identical values can stand only once. Active and inactive are the calls of the source.

Tests used:
Phospholipase A2 = Phospholipase A2 (Homo sapiens, UniProt P04054); assay type: functional;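 note: confirmatory dose-response counterscreen on phospholipase A2, testing hits that came from an ultra-high-throughput screen for ATG4B inhibitors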
Cysteine protease ATG4B = Cysteine protease ATG4B (Homo sapiens, UniProt Q9Y4P1); assay type: functional;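 note: Fluorescence-based dose-response confirmation assay measuring inhibition of ATG4B activity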
[1] = Luminescence Cell-Based Dose Response HTS to Identify Activators of Luciferase Translation or Activity in H4 […] Cells. [Related pubchem assays: 1829 (Project Summary), 1814 (Primary HTS)]; assay type: functional
[2] = Luminescence Cell-Based Dose Confirmation HTS to Identify Activators of 5'UTR Stem-Loop Driven Alpha-Synuclein mRNA Translation in H4 Neuroglioblastoma Cells. [Related pubchem assays: 1829 (Project Summary), 1814 (Primary HTS)]; assay type: functional
H4 = experiment: Luminescence Cell-Based Dose Response HTS to Identify Activators of 5'UTR Stem-Loop Driven Prion Protein mRNA Translation in H4 Neuroglioblastoma Cells. [Related pubchem assays: 1829 (Project Summary), 1814 (Primary HTS)]; assay type: functional; conditions: Homo sapiens
[3] = target: Delta-type opioid receptor (Homo sapiens, UniProt P41143); experiment: Counterscreen for agonists of heterodimerization of the mu 1 (OPRM1) and delta 1 (OPRD1) opioid receptors: Luminescence-based cell-based high throughput dose response assay to identify agonists of OPRD1 homodimerization. [Related pubchem assays (depositor defined):AID504326, AID504355, AID504692, AID504904, AID504905]; assay type: functional
cells = assay type: functional
Mu-type opioid receptor = Mu-type opioid receptor (Homo sapiens, UniProt P35372); experiment: Counterscreen for agonists of heterodimerization of the mu 1 (OPRM1) and delta 1 (OPRD1) opioid receptors: Luminescence-based cell-based high throughput dose response assay to identify agonists of OPRM1 homodimerization.; assay type: functional;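 note: U2OS cells expressing OPRM1 and beta-arrestin as split beta-galactosidase partners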
[4] = Trypanosoma cruzi growth suppression in host cells – NIH3T3 host cells, beta-gal luminescence, confirmation (AID 2044); assay type: functional, cell-based;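 note: intracellular parasites grown in NIH/3T3 mouse fibroblasts as host cells; luminescent beta-galactosidase reporter signal from transgenic T. cruzi replicating inside host cells; inhibitors lower the luminescence signal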
[5] = target: Apoptotic protease-activating factor 1 (Homo sapiens, UniProt O14727); assay type: functional
[6] = HepG2 cell cytotoxicity, dose response, cytotoxicity control for non-replicating M. tuberculosis project (AID 489018); assay type: functional; conditions: Mycobacterium tuberculosis
[7] = THP-1 cell cytotoxicity, dose response, cytotoxicity control for non-replicating M. tuberculosis project (AID 489025); assay type: functional
[8] = Vero E6 cell cytotoxicity, dose response, cytotoxicity control for non-replicating M. tuberculosis project, secondary assay (AID 492998); assay type: functional, VeroE6; conditions: Vero C1008
[9] = NIH3T3 cell viability loss – ATP luminescence, mouse fibroblasts, counter-screen, dose response (AID 2010); assay type: functional, cell-based;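 note: cells exposed to compound for about 90 hours before reading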
[10] = target: 5-hydroxytryptamine receptor 5A (Homo sapiens, UniProt P47898); experiment: Counterscreen for agonists of OPRM1-OPRD1 heterodimerization: luminescence-based cell-based high throughput dose response assay to identify agonists of 5-hydroxytryptamine (serotonin) 5A receptor (HTR5A). [Related pubchem assays (depositor defined):AID504326, AID504355, AID504692, AID504904, AID504905]; assay type: functional
[11] = (§1) Counterscreen for antagonists of the orexin 1 receptor (OX1R; HCRTR1): Fluorescence-based cell-based high throughput dose response assay to identify antagonists of the parental CHO cell line. [Related pubchem assays (depositor defined):AID434989, AID435008, AID463079, AID485270, AID492963, AID492964, AID492965, AID493232, AID504699, AID504701]; assay type: functional
[12] = target: T1, Orexin/Hypocretin receptor type 1 (Homo sapiens, UniProt O43613); experiment: (§2) Fluorescence-based cell-based high throughput dose response assay for antagonists of the orexin 1 receptor (OX1R; HCRTR1). [Related pubchem assays (depositor defined):AID434989, AID435008, AID463079, AID485270, AID492963, AID492964, AID492965, AID493232, AID504717, AID504718]; assay type: functional
T1 sequence (O43613 whole entry): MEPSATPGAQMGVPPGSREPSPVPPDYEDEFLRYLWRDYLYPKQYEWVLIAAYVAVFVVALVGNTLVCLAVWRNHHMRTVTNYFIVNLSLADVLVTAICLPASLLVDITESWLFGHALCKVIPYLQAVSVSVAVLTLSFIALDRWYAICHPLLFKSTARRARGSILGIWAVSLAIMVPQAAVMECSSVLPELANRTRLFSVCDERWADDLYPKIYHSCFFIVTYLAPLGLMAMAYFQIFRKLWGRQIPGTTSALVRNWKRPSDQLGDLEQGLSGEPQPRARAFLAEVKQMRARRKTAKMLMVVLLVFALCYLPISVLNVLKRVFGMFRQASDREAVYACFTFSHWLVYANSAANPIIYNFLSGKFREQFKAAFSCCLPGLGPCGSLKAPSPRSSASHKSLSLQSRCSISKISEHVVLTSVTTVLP

[13] = target: T1, Orexin/Hypocretin receptor type 1; experiment: as §2, with “Homogeneous Time Resolved Fluorescence (HTRF)-based” for “Fluorescence-based”; assay type: functional
CHO-K1 = experiment: as §1, with “Homogeneous time resolved fluorescence (HTRF)-based” for “Fluorescence-based”, “cell-based” for “cell-based high throughput”, “CHO-K1” for “CHO”; assay type: functional; conditions: Cricetulus griseus;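 note: potency for inhibition of ATP-stimulated IP1 production as antagonists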
Orexin receptor type 2 [14] = target: T2, Orexin receptor type 2 (Homo sapiens, UniProt O43614); experiment: Counterscreen assay for antagonists of the orexin 1 receptor (OX1R; HCRTR1): Homogeneous Time Resolved Fluorescence (HTRF)-based cell-based dose response assay for antagonists of the orexin 2 receptor (OX2R; HCRTR2), run by assay provider.; assay type: functional
T2 sequence (O43614 whole entry): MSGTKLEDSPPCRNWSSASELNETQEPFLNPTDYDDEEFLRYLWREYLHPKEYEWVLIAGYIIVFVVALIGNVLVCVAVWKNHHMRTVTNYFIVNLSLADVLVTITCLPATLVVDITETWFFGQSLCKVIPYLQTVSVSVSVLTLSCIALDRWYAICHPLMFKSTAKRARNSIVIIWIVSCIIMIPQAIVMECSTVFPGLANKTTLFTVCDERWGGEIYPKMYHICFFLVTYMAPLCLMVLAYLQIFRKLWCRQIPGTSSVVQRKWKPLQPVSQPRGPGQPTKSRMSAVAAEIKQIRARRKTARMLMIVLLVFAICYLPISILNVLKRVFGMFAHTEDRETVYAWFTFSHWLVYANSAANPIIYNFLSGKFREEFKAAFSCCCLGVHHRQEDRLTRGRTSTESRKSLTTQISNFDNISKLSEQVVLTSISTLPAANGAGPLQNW

Orexin receptor type 2 [15] = target: T2, Orexin receptor type 2; experiment: Counterscreen assay for antagonists of the orexin 1 receptor (OX1R; HCRTR1): Fluorescence-based cell-based dose response assay for antagonists of the orexin 2 receptor (OX2R; HCRTR2), run by assay provider.; assay type: functional
[16] = target: Beta-2 adrenergic receptor (Homo sapiens, UniProt P07550); experiment: ADRB2 activation measured by internalization – cell-based, FAP fluorogen, flow cytometry, cherry pick 1, dose response (AID 588763); assay type: functional
[17] = target: Peroxisome proliferator-activated receptor gamma/Nuclear receptor coactivator 2 (Homo sapiens, UniProt P37231); experiment: (§3) TR-FRET dose response biochemical High Throughput Screening assay for agonists of the steroid receptor coactivator 2 (SRC-2) recruitment by the peroxisome proliferator-activated receptor gamma (PPAR gamma): non-selective agonists. [Related pubchem assays: 1297, 1032 ]; assay type: functional
[18] = target: Peroxisome proliferator-activated receptor gamma/Nuclear receptor coactivator 3 (Homo sapiens, UniProt P37231); experiment: as §3, with “3 (SRC-3)” for “2 (SRC-2)”, “1301 (Confirmation screen.), 1048 (Primary screen.)]” for “1297, 1032 ]”; assay type: functional
[19] = target: Peroxisome proliferator-activated receptor gamma/Nuclear receptor coactivator 1 (Homo sapiens, UniProt P37231); experiment: as §3, with “1 (SRC-1)” for “2 (SRC-2)”, “assays (depositor defined):AID1300, AID1808, AID504735, AID631]” for “assays: 1297, 1032 ]”; assay type: protein assay
Peroxisome proliferator-activated receptor gamma/Nuclear receptor coactivator 1, sequence (P37231 whole entry): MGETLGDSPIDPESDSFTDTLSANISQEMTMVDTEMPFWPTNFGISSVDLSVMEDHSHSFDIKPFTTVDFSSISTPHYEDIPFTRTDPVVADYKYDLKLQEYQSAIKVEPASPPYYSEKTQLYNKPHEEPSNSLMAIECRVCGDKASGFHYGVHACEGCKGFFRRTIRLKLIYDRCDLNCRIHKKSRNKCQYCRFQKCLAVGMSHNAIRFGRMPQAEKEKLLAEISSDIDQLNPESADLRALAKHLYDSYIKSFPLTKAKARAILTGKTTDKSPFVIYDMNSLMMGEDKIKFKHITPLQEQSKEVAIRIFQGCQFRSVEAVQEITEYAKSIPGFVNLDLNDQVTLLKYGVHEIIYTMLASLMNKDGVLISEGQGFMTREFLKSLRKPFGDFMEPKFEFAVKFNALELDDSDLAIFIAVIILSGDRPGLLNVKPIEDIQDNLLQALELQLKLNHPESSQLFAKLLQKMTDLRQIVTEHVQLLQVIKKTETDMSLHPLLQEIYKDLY
Peroxisome proliferator-activated receptor gamma/Nuclear receptor coactivator 1, sequence (Q15788 whole entry, further chain): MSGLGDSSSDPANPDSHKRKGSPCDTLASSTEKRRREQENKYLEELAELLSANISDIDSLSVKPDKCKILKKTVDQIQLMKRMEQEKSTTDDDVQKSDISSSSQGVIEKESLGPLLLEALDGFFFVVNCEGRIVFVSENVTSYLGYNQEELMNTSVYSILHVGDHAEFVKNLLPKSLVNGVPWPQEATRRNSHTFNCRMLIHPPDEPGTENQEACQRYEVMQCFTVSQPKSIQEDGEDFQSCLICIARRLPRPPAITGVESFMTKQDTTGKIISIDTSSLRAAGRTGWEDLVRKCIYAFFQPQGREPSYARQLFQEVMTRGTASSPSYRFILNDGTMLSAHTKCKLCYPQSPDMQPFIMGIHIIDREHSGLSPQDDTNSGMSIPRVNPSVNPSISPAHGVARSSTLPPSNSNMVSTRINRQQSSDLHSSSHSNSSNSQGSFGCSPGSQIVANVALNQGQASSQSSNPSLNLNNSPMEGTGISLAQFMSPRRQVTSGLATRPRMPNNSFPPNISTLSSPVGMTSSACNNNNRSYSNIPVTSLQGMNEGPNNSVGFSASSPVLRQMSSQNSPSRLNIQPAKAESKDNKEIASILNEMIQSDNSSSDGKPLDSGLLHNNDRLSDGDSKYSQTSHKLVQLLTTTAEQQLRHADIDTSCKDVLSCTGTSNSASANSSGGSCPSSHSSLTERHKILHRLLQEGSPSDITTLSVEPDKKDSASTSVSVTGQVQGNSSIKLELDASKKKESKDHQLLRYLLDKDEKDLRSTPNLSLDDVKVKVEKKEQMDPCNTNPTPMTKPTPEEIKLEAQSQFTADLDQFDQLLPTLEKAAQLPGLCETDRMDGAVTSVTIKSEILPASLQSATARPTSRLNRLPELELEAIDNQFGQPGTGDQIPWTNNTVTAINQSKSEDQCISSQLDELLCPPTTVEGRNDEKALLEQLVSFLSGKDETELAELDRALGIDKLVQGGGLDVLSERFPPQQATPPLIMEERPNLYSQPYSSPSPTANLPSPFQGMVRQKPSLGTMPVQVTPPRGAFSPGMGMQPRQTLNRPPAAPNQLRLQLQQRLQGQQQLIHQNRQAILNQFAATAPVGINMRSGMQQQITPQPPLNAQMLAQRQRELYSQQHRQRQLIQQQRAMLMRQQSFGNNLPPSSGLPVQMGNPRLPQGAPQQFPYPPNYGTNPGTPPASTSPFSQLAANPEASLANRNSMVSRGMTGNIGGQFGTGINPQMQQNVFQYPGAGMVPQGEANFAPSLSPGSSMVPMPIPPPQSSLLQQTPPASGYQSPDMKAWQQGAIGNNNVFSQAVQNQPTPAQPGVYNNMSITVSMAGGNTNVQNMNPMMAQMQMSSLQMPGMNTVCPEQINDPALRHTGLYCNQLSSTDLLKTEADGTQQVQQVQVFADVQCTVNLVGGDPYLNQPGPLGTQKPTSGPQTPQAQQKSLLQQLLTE

Beta-2 adrenergic receptor, sequence (P07550 whole entry): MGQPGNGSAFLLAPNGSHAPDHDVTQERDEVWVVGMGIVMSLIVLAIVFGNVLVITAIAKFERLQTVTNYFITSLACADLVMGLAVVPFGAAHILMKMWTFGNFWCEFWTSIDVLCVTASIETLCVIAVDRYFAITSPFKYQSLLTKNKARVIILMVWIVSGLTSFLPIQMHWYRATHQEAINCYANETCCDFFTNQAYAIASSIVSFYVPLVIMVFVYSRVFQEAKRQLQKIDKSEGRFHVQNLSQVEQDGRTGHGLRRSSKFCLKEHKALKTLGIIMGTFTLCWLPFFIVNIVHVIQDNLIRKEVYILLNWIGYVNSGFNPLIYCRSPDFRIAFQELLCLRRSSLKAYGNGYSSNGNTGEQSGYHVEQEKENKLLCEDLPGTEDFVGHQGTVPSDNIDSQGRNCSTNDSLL
Phospholipase A2, sequence (P04054 whole entry): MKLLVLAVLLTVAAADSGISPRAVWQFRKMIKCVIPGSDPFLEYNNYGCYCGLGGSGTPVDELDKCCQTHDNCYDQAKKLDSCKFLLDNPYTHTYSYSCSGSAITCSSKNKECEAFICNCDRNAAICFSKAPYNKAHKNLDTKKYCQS
Cysteine protease ATG4B, sequence (Q9Y4P1 whole entry): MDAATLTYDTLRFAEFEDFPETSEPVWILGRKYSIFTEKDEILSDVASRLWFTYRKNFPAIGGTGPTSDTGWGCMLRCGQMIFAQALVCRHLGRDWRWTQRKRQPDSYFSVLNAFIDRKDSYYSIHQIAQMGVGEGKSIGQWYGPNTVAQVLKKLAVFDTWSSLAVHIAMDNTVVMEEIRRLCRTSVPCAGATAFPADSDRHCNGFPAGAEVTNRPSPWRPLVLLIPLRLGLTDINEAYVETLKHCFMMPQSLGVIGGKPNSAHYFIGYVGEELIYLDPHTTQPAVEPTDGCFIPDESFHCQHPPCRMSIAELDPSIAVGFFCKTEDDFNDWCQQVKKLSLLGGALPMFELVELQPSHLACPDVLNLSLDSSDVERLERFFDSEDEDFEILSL
5-hydroxytryptamine receptor 5A, sequence (P47898 whole entry): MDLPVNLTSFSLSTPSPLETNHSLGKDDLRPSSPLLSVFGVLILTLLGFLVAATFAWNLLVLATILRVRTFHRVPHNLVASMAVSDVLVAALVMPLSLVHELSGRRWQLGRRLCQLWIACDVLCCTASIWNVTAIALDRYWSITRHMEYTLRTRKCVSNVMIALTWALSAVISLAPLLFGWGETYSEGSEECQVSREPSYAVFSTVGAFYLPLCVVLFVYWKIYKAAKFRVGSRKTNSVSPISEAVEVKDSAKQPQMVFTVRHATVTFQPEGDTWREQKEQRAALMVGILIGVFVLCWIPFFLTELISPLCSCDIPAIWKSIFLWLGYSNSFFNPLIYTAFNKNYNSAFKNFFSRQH
Mu-type opioid receptor, sequence (P35372 whole entry): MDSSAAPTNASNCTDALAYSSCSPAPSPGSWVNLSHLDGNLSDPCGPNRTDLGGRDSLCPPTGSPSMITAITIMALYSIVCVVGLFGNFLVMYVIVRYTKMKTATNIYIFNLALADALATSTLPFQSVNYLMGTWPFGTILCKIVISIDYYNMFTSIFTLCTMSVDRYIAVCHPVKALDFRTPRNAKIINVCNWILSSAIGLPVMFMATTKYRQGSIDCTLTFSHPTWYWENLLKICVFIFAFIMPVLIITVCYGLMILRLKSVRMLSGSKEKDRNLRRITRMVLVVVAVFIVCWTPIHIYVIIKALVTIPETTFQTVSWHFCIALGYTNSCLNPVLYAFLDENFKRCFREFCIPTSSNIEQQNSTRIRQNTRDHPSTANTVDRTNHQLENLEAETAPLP
Delta-type opioid receptor, sequence (P41143 whole entry): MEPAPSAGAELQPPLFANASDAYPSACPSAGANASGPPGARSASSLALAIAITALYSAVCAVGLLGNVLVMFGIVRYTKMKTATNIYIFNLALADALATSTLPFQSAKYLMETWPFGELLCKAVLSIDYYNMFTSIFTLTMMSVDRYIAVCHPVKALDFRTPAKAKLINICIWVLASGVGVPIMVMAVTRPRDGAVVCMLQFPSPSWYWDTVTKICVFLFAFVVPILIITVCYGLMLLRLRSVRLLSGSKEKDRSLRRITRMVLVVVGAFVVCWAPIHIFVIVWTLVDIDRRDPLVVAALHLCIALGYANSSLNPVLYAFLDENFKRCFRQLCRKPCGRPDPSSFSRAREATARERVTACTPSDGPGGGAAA

Q: What does the source list for `Cc1nn(Cc2c(F)c(F)c(F)c(F)c2F)c(C)c1NC(=O)c1ccc(COc2cc(Cl)ccc2Cl)cc1`?
A: IC50 (Phospholipase A2): 0.27 µM (active); IC50 (Cysteine protease ATG4B): 0.532 µM (active); EC50 [1]: 7.73 µM (active); EC50 [2]: > 120 µM (not active); EC50 (H4): 3.37 µM (active)

Q: Which results are given for `CN1CCN(c2ccc(NC(=O)c3ccc(-c4ccc(Br)cc4)o3)cc2)CC1`?
A: EC50 [3]: > 10.3 µM (inactive); IC50 (cells): 2.59 µM (active); EC50 (Mu-type opioid receptor): > 3.42 µM (active); EC50 [4]: 1.26 µM (active); IC50 [5]: 37 µM (active); CC50 [6]: > 20 µM (active); CC50 [7]: 16.7 µM (active); CC50 [8]: 13 µM (active); EC50 [9]: > 60 µM (not active); EC50 [10]: > 92.5 µM (inactive)

Q: For `Cc1cccc(-c2cc3nc(-c4ccccc4)cc(N4CCC5(CC4)OCCO5)n3n2)c1`, which IC50 [11] is on record?
A: Its IC50 is > 49.8 µM (inactive).

Q: What about the IC50 [12] of the same compound?
A: The IC50 was 12.6 µM (inactive).

Q: And the IC50 [13]?
A: The IC50 was 5.38 µM (active).

Q: What about the IC50 (CHO-K1) of the same compound?
A: Its IC50 is > 66.2 µM (inactive).

Q: What about the IC50 (Orexin receptor type 2 [14]) of the same compound?
A: The IC50 was > 50 µM (inactive).

Q: And the IC50 (Orexin receptor type 2 [15])?
A: The IC50 was > 88.8 µM (inactive).

Q: With `Cc1cccc(Nc2nnc(-c3ccc(C(=O)N4C[C@H]5C[C@H](C4)c4cccc(=O)n4C5)cc3)c3ccccc23)c1` as the compound, how does the EC50 [16] read?
A: The EC50 was 2.12 µM (active) and 1.66 µM (active).

Q: What does the source list for `CCn1c(=S)[nH]c2c(c1=O)C(C)(C)Cc1ccccc1-2`?
A: EC50 [17]: > 79.4 µM (not active); EC50 [18]: > 79.4 µM (not active); EC50 [19]: > 79.4 µM (inactive)

Q: With `CCOc1ccccc1C(=O)NCC(=O)OCc1csc(CC(=O)Nc2ccc(C)cc2)n1` as the compound, how does the EC50 [16] read?
A: The EC50 was 228 nM (active).

Q: With `Cc1cccc(/C=N/NC(=O)c2cc3c(s2)-c2ccccc2CC3)c1` as the compound, how does the IC50 [11] read?
A: Its IC50 is > 49.8 µM (inactive).

Q: What about the IC50 [12] of the same compound?
A: The IC50 was 2.81 µM (active).

Q: And the IC50 [13]?
A: Its IC50 is 2.13 µM (active).

Q: What about the IC50 (CHO-K1) of the same compound?
A: The IC50 was > 66.2 µM (inactive).

Q: What about the IC50 (Orexin receptor type 2 [14]) of the same compound?
A: The IC50 was > 50 µM (inactive).

Q: What about the IC50 (Orexin receptor type 2 [15]) of the same compound?
A: Its IC50 is > 88.8 µM (inactive).
